One series concerns type II diabetics. The series can be described thus: Short-term experiments with alpha-glucosidase inhibitors and bulk materials: blood sugar increase after test breakfast. As to conditions: for action compared with bulk material: levelling of blood sugar increase after eating; for Hypoglycemia, MG 100, mean value: mean of 6 cases. On the procedure:
After measurement of the fasting blood sugar in the morning, 20 type II diabetics received a test breakfast (75 g of white bread, 20 g of butter, 40 g of jam or, as a sugar-free variant, 75 g of white bread, 20 g of butter and 40 g of cheese). On the control days, before the test breakfast 75 ml of yoghurt were given, and on the test days the various bulk materials were given in 75 ml of yoghurt. […] After the test breakfast, the blood sugar values were measured at ½ to 1 hour intervals for 2-4 hours. Each short-term experiment was carried out two to three times with the individual subjects. The respective average values are indicated.
The basis for the evaluation is the graphic representation of the blood sugar values as curves. The increasing phase of the blood sugar lasting 1-2 hours is determined planimetrically and considered as a measure of the lower limit of glucose absorption. In the first hour after the test breakfast, under physical quasi-resting conditions the increase in the blood sugar curve ought to reflect the intestinal glucose absorption into the blood almost unadulteratedly on the morning of the experiment in the diabetic differently from in the healthy person. Beyond the first hour, even in most type II diabetics an insulin response commences more or less clearly which levels off the blood sugar increase, or conversely in any case leads to a corresponding underestimation of the glucose absorption. […] The planimetric evaluation of all curves is then extended until achieving the peak of the last curve. […] For practical reasons, we compare the increasing phases of the blood sugar curves under the various experimental conditions (control, after bulk material, in the later experiments also after alpha-glucosidase inhibitors) with one another and calculate from this the degree of hypoglycemia based on the control curve. […] The statistical evaluation, which is possible only in the short-term experiments on account of the amounts of data, is carried out using the student's t test in a paired comparison.
21 patients were investigated: 10 each received acarbose and miglitol, 1 patient first acarbose and then miglitol. The individual dose used was 25-100 mg.
Immediately before the test meals described above, the subjects received either a) 75 ml of yoghurt (control experiment) or b) bulk material in yoghurt (bulk curve) or c) a tablet of acarbose or miglitol and then 75 ml of yoghurt (alpha-GI curve) or d) this medicament 5 minutes before taking bulk material in yoghurt (bulk-plus alpha-GI curve). As described, the blood sugar values were determined before and for 3 hours after the test meal.

Another series relates to normal persons. The series can be described thus: Side effects in normal persons after 50-75 g of sucrose instead of test breakfast. Type of series: in vivo, human. To be noted: 100 mg.
Setting [1] is: 50 mg on its own (acarbose 2 cases, miglitol 8 cases).

Where “and” joins values, the source holds several entries; their conditions need not be identical. Equal entries are not always repeated.

For `CC1OC(OC2C(CO)OC(OC3C(CO)OC(O)C(O)C3O)C(O)C2O)C(O)C(O)C1NC1C=C(CO)[C@@H](O)[C@H](O)[C@H]1O` (stereo partly shown) [AB, acarbose], in the series with type II diabetics (setting [1]), the concomitant symptoms result is “no clear concomitant symptoms”. Further, the “Hypoglycemia (decrease in the blood sugar increase after a test breakfast), Alpha-GI” value in the series with type II diabetics (AB 50 mg, individual patient) was 42% and 50%; with type II diabetics (AB 100 mg, individual patient), 41% and 63% (2×) and 56% and 65% and 6% and 55% and 39% and 58% and 59%. The “action compared with bulk material” value with type II diabetics is given as “considerably stronger action than bulk material”. Moreover, in the series with normal persons, the “symptoms after 50-75 g of sucrose” value is “abdominal pain and diarrhea occurred”.
Turning to `OCCN1C[C@H](O)[C@@H](O)[C@H](O)[C@H]1CO` [MG, miglitol], the concomitant symptoms entry in the series with type II diabetics (25 mg on its own (5 cases)) and in the series with type II diabetics (setting [1]) was “no clear concomitant symptoms” in each case. For the same molecule, the “Hypoglycemia (decrease in the blood sugar increase after a test breakfast), Alpha-GI” value in the series with type II diabetics (MG 25 mg, individual patient) is 27% and 47% and 12% and 53% and 49% and 24%; with type II diabetics (MG 50 mg, individual patient), 33% and 40% and 37% and 62% (2×) and 25% and 59% and 71%; in the series on type II diabetics (MG 100 mg, individual patient) it was 24% and 60% and 80% and 59% and 32% and 66% and 75% and 34% and 73%. Moreover, the “action compared with bulk material” value in the series on type II diabetics was “considerably stronger action than bulk material”. Besides, in the series on type II diabetics (miglitol 100 mg on its own, individual patient), the “Hypoglycemia, MG 100” value was 66% and 75% and 34% and 80% and 59% and 32%. Besides, the “Hypoglycemia, MG 100, mean value” in the series on type II diabetics (miglitol 100 mg on its own) came to 57.7%; with type II diabetics (miglitol 100 mg on its own, listed as miglitol), 58%. For the same molecule, in the series with type II diabetics (on its own, short-term experiments), the “patients with semiliquid stools as far as diarrhea” value is reported as 4 of 9 patients. In the series on normal persons, the “symptoms after 50-75 g of sucrose” value is “abdominal pain and diarrhea occurred”.
